# Reference: patent US20240408216A1, “PROTEIN INHIBITOR OR DEGRADING AGENT, PHARMACEUTICAL COMPOSITION CONTAINING SAME AND PHARMACEUTICAL USE” (JING MEDICINE TECHNOLOGY (SHANGHAI) LTD., priority 2021, published 2024)
# Columns and labels:
# human EGFR-LTC = molecular target: T1, human EGFR-LTC (Homo sapiens, UniProt P00533, C797S/L858R/T790M); assay: EGFR protein abundance assay (Western blotting), EGFR-LTC; assay type: cell-based; details: 24 h, Western blot
# T1 construct: expressed in transfected cells
# T1 sequence (P00533 25-1210 T790M/C797S/L858R): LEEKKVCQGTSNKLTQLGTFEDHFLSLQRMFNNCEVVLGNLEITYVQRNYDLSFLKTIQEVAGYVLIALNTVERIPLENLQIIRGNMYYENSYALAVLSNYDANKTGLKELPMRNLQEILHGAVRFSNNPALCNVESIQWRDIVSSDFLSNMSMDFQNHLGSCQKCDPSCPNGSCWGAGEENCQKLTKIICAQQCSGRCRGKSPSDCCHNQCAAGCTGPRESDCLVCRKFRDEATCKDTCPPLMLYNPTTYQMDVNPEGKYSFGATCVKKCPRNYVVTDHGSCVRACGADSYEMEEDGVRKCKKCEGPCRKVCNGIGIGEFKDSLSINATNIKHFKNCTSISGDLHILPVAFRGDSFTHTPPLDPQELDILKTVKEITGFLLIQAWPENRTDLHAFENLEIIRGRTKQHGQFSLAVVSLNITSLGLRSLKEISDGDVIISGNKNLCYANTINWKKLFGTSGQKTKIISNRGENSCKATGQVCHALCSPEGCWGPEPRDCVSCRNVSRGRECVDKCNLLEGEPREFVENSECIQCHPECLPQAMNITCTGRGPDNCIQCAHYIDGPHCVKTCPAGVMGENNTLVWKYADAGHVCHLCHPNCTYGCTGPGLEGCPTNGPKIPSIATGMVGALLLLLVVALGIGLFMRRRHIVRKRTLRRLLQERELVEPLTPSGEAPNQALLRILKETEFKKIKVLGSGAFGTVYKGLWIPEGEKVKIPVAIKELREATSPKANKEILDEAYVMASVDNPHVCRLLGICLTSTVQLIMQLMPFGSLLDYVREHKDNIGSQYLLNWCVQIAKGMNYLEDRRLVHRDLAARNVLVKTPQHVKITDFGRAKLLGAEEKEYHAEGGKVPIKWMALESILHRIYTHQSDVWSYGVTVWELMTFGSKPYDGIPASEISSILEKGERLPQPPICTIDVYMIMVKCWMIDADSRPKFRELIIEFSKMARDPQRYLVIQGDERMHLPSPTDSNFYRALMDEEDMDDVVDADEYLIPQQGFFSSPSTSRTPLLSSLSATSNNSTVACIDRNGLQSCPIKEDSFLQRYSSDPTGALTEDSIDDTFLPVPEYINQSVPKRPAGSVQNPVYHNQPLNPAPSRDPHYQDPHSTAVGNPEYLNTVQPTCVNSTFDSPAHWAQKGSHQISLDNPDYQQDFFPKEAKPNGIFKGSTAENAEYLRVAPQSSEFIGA
# Description: (§1) Mouse Ba/F3 cells stably expressing human EGFR-DTC, EGFR-LTC, or EGFR-DC were transferred to Petri dishes with RPMI-1640 medium (Gibco, Product No. 11875093) containing 10% fetal bovine serum (FBS, Biological Industries, Product No. 04-001-1A) and 0.1% penicillin/streptomycin (P/S) and incubated in an aseptic incubator at 37° C., 95% relative humidity, and 5% CO2. Cells at the logarithmic growth phase were taken and seeded at a density of 50000 cells/well in 12-well plates (Corning, Product No. 3513) containing 1 mL of medium per well. After 24 h, the compounds disclosed herein with different concentrations were added to the wells at a final DMSO concentration of 0.1%. After 24 h, cells were lysed in SDS lysis buffer (1.45 g of SDS, 0.2 g of Tris base, 6 mL of glycerol, 20 mg of bromophenol blue, 310 mg DTT; brought to 40 mL with d2H2O), and the EGFR levels were detected and analyzed by Western Blotting (immunoblotting) using standard molecular biological techniques. Cell lysates were boiled at 95° C. for 8 min, mixed and centrifuged. The total cell proteins in the lysates were subjected to SDS-PAGE (GenScript, Product No. M00654), transferred to NC membranes (GE, Product No. 1060002) by blotting, incubated in a blocking buffer (TAKARA, Product No. T7131A) at room temperature for 60 min, and co-incubated overnight at 4° C. with the following primary antibodies: anti-EGFR (#4267S, 1:1000), anti-phoso-EGFR (#3777S, 1:1000), anti-GAPDH (#5174S, 1:10000), anti-Actin (#5125 S, 1:10000) (all purchased from Cell Signaling Technology). The samples were washed three times with TBST at room temperature, each for 10 min, and then incubated for 60 minutes in a blocking buffer containing a secondary antibody (#7074S, 1:10000, purchased from Cell Signaling Technology) at room temperature. The samples were washed three times with TBST at room temperature, each for 10 min. Chemiluminescent substrates were added, and an Azure c300 system was used for imaging.
# BaF3 (EGFR L858R) = BaF3 (EGFR L858R) (Homo sapiens, UniProt P00533, L858R, cells depend on it); assay: Cell proliferation IC50 assay (Cell Titer GLO), BaF3 L cells; assay type: cell-based, mouse; details: Table 7, 72 h
# Sequence of BaF3 (EGFR L858R) (P00533 whole entry L858R): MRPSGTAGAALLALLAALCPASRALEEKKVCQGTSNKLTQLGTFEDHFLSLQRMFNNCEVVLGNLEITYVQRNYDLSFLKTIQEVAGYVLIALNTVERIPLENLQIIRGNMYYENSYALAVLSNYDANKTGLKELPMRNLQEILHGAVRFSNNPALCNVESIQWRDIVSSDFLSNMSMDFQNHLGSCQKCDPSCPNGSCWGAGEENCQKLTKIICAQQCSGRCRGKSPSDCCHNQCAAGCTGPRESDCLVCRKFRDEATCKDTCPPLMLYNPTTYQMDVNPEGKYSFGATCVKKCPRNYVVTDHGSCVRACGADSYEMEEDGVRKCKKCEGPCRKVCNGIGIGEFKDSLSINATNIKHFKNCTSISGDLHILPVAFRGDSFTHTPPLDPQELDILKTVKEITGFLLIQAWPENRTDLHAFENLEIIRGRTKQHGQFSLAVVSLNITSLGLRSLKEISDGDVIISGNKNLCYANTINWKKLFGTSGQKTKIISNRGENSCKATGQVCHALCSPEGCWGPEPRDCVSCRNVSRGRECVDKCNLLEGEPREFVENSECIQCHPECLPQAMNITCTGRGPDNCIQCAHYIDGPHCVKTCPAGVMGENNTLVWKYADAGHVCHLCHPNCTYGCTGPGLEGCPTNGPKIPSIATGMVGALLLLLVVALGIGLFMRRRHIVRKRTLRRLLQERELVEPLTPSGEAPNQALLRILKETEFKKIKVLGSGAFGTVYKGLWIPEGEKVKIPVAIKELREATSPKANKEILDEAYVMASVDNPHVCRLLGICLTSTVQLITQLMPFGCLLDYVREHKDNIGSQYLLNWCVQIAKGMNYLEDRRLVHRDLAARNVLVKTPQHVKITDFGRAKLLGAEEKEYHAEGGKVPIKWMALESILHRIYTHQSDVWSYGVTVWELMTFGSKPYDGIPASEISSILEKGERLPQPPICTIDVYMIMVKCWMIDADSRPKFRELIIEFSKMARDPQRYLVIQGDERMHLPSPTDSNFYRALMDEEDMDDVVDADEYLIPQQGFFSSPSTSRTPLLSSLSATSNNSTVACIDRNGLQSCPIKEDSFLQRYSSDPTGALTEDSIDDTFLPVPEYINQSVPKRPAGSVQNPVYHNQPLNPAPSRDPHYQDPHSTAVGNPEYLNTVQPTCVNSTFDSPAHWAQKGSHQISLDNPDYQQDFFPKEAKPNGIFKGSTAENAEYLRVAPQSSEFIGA
# Description: (§2) IC50 of compounds in the present invention was determined by Cell Titer GLO reagent from Promega. The procedures are as follows:
# (§3) Tumor cells were cultured in specified medium in an incubator at 37° C. and 5% CO2. The cells were passaged periodically. Cells at the logarithmic growth phase were collected for plating at a density of 2000-4000 cells/well. The next day, the compounds of the present invention were serially diluted and added to the cells, with DMSO being the negative control and the culture media without cells being the blank control. The plate was incubated in the incubator for 72 h. The cell viability assay was performed by adding the detection reagents to the cell culture media according to Cell Titer GLO reagent instructions and detecting luminescent signals on an EnVision microplate reader (PerkinElmer).
# (§4) Inhibition of cell growth by the compounds of the present invention was plotted by Prism Graphpad software for statistically calculating the IC50 of the compound of the present invention.
# BaF3 (EGFR WT) = assay: Cell proliferation IC50 assay (Cell Titer GLO), BaF3 WT cells; assay type: cell-based; details: Mus musculus, Ba/F3 EGFR, Table 5, 10 ng/ml EGF, 72 h
# Procedure, shortened: (§5)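 Log-phase cells seeded 2000-4000/well, serial compound dilutions added one day later; DMSO negative, medium-only blank.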
# LT = assay: Cell proliferation IC50 assay (Cell Titer GLO), LT cells; assay type: cell-based; details: Mus musculus; Table 7; LT cells (BaF3 with EGFR mutant), 72 h
# Description: as §2, §3, §4
# A431 = assay: Cell proliferation IC50 assay (Cell Titer GLO), A431 cells; assay type: cell-based; details: Homo sapiens, A-431; Table 5; A431, 72 h; read-out: A431 IC50
# Procedure, shortened: as §5
# BaF3 (EGFR Del19) = BaF3 (EGFR Del19) (Homo sapiens, UniProt P00533, cells depend on it, form not given); assay: Cell proliferation IC50 assay (Cell Titer GLO), BaF3 D cells; assay type: cell-based, mouse; details: Table 7, 72 h
# Sequence of BaF3 (EGFR Del19) (P00533 with tags, fused parts or gaps DEL746-750): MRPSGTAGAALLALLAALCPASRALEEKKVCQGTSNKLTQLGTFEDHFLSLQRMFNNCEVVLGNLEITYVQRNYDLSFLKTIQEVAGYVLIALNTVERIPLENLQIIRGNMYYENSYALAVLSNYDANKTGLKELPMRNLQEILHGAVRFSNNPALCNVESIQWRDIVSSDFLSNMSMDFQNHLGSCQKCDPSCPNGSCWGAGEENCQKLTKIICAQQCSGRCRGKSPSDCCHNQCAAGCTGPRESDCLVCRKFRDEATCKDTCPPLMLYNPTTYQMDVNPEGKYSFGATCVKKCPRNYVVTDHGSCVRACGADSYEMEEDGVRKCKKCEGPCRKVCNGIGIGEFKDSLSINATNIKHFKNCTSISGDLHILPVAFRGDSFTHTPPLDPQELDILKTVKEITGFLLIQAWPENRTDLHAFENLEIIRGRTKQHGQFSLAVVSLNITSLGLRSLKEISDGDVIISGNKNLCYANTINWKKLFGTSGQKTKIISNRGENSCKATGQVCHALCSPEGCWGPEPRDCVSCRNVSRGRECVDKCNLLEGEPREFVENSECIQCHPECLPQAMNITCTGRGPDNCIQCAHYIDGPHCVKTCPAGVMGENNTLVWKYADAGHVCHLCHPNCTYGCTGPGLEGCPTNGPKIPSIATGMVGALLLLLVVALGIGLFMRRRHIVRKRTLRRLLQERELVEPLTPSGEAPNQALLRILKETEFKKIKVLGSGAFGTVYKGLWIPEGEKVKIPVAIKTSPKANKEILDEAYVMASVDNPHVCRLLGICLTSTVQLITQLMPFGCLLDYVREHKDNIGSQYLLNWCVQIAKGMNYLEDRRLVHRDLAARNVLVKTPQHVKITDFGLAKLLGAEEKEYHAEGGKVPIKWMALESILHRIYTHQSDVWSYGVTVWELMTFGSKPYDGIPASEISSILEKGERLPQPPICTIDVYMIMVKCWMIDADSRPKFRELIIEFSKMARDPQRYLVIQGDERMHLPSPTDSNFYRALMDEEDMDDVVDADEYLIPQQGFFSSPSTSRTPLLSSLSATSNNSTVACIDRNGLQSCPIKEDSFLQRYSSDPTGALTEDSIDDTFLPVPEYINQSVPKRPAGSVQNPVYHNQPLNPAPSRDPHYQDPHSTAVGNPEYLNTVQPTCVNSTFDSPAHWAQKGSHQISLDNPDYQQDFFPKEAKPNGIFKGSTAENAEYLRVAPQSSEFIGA
# Description: as §2, §3, §4
# [1] = test system: BaF3 (EGFR Del19/T790M/C797S); assay: Cell proliferation IC50 assay (Cell Titer GLO), BaF3 DTC cells; assay type: cell-based; details: Mus musculus, Ba/F3 EGFR-Del19/T790M/C797S, Table 5, 72 h
# Procedure, shortened: as §5
# human EGFR-DC = assay: EGFR protein abundance assay (Western blotting), EGFR-DC; assay type: cell-based; details: Ba/F3 cells expressing human EGFR-DC, 24 h, Western blot
# Description: as §1
# [2] = test system: BaF3 (EGFR L858R/T790M/C797S); assay: Cell proliferation IC50 assay (Cell Titer GLO), BaF3 LTC cells; assay type: cell-based; details: Mus musculus, Ba/F3 EGFR, Table 5, 72 h
# Procedure, shortened: as §5
# DT = assay: Cell proliferation IC50 assay (Cell Titer GLO), DT cells; assay type: cell-based; details: Mus musculus; Table 7; DT cells (BaF3 with EGFR mutant), 72 h
# Description: as §2, §3, §4
# BaF3 (EGFR L858R/C797S) = BaF3 (EGFR L858R/C797S) (Homo sapiens, UniProt P00533, C797S/L858R, cells depend on it); assay: Cell proliferation IC50 assay (Cell Titer GLO), BaF3 LC cells; assay type: cell-based, mouse; details: Table 7, 72 h
# Description: as §2, §3, §4
# BaF3 patent = assay: Cell proliferation IC50 assay (Cell Titer GLO), BaF3 parental cells; assay type: cell-based; details: Mus musculus, Table 5, 10 ng/ml mIL3, 72 h
# Description: as §2, §3, §4
# human EGFR-DTC = assay: EGFR protein abundance assay (Western blotting), EGFR-DTC; assay type: cell-based; details: Ba/F3 cells expressing human EGFR-DTC, 24 h, Western blot
# Description: as §1
# BaF3 (EGFR Del19/C797S) = molecular target: T2, BaF3 (EGFR Del19/C797S) (Homo sapiens, UniProt P00533, C797S, cells depend on it, form not given); assay: Cell proliferation IC50 assay (Cell Titer GLO), BaF3 DC cells; assay type: cell-based, mouse; details: Table 7, 72 h
# T2 construct: BaF3 (EGFR Del19/C797S)|DC|RPMI1640 + 10% FBS
# T2 sequence (P00533 with tags, fused parts or gaps DEL746-750/C797S, form open): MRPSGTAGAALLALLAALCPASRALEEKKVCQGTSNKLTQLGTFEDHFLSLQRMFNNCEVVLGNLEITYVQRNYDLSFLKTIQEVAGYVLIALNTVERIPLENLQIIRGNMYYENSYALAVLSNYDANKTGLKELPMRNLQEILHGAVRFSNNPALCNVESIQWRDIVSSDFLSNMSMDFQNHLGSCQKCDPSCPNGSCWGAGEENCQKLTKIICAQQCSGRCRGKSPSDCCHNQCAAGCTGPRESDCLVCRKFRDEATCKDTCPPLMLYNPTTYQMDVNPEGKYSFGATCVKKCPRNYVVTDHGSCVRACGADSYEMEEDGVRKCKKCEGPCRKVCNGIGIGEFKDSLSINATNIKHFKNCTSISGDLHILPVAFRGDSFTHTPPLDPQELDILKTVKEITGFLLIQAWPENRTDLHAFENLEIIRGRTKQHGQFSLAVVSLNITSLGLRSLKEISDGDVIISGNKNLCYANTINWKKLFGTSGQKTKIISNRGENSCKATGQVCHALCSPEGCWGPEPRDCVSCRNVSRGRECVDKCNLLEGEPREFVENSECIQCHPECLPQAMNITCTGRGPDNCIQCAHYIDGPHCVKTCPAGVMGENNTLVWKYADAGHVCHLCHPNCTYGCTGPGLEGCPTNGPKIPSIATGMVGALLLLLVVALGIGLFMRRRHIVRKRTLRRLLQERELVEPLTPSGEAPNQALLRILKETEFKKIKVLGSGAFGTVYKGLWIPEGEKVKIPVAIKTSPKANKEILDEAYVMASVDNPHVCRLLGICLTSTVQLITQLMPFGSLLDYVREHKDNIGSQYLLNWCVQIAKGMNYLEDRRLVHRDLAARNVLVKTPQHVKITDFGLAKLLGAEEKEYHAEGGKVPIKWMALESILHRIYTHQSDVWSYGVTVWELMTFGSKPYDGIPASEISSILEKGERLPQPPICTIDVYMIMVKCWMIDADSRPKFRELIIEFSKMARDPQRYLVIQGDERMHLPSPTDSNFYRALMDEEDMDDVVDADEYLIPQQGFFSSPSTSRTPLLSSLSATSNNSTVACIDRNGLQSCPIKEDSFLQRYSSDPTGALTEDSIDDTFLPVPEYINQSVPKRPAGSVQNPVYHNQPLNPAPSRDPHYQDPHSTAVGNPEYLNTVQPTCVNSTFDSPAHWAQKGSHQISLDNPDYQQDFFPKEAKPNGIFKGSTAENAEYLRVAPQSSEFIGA
# Procedure, shortened: as §5
structure (smiles),measurement,setting,value
"CCc1cc(Nc2ncc(Cl)c(Nc3ccccc3P(C)(C)=O)n2)c(OC)cc1N1CCC(N2CCN(CCC#Cc3cccc4c3CN(C3CCC(=O)NC3=O)C4=O)CC2)CC1 (single isomer, unassigned) [Example E4]",DC50,human EGFR-LTC; Ba/F3 cells expressing human EGFR-LTC,6.26 nM
same,Dmax,"human EGFR-LTC; BaF3, Ba/F3 cells expressing human EGFR-LTC",91%
same,GI50,BaF3 (EGFR L858R),6.7 nM
same,IC50,BaF3 (EGFR WT),> 4000 nM
same,IC50,LT,7.4 nM
same,IC50,A431,2060 nM
same,GI50,BaF3 (EGFR Del19),2.1 nM
same,IC50,[1],6.6 nM
same,DC50,human EGFR-DC,18.6 nM
same,EGFR-DC Dmax,human EGFR-DC,75%
same,IC50,[2],37.6 nM
same,IC50,DT,5.5 nM
same,GI50,BaF3 (EGFR L858R/C797S),23 nM
same,IC50,BaF3 patent,> 4000 nM
same,DC50,human EGFR-DTC,2.27 nM
same,EGFR-DTC Dmax,human EGFR-DTC,96%
same,IC50,BaF3 (EGFR Del19/C797S),4.8 nM
